Here are results for 2 compounds from ChEMBL document CHEMBL4425195, “Isolation of three new annonaceous acetogenins from Graviola fruit (Annona muricata) and their anti-proliferation on human prostate cancer cell PC-3” (Bioorg Med Chem Lett, 2016).

Structures are written as SMILES. Calls of active or inactive are those of the source. The rule behind the calls is not given here.

For the experiment, the system named is PC-3. Nature of the experiment: Antiproliferative activity against human PC3 cells at 20 ug/ml after 24 hrs by MTT assay. The class given is functional, cell-based.

As to `CCCCCCCCCC[C@@H](O)[C@@H](O)C[C@H](O)[C@@H]1CC[C@@H](CCCCCCCCCC[C@H](O)CC2=C[C@H](C)OC2=O)O1`, the result was Active.

Regarding `CCCCCCCCCCCC/C=C/CC[C@H](O)[C@@H]1CC[C@@H]([C@@H](O)CCC(O)CCCCC[C@H](O)CC2=C[C@H](C)OC2=O)O1` (some centres not stated), the outcome was Active.
